Values belong to the molecule of their own block, whether it stands above or below them.
Tests used:
[1] = target: Serine/threonine-protein kinase B-raf (Mus musculus, UniProt P28028, V600E); experiment: Inhibition of full-length GST-tagged mouse BRAF V600E mutant using recombinant human full length N-terminal His-tagged MEK1 as substrate preincubated for 1 hr followed by substrate addition measured after 25 mins by Nu-page gel-based phosphor screen analysis
HT-29 = experiment: Antiproliferative activity against human HT-29 cells harboring BRAF V600E mutant after 24 hrs by MTT assay; type: functional, cell-based; settings: HT-29, 24 h
A-375 = experiment: Antiproliferative activity against human A375 cells harboring BRAF V600E mutant after 24 hrs by MTT assay; type: functional, cell-based; settings: A-375, 24 h
[2] = Antiproliferative activity against human WM1361 cells harboring wild-type BRAF after 48 hrs by MTT assay; type: functional, cell-based; settings: WM1361, 48 h

Chain of Serine/threonine-protein kinase B-raf (P28028 whole entry, looked up, stated change not applied): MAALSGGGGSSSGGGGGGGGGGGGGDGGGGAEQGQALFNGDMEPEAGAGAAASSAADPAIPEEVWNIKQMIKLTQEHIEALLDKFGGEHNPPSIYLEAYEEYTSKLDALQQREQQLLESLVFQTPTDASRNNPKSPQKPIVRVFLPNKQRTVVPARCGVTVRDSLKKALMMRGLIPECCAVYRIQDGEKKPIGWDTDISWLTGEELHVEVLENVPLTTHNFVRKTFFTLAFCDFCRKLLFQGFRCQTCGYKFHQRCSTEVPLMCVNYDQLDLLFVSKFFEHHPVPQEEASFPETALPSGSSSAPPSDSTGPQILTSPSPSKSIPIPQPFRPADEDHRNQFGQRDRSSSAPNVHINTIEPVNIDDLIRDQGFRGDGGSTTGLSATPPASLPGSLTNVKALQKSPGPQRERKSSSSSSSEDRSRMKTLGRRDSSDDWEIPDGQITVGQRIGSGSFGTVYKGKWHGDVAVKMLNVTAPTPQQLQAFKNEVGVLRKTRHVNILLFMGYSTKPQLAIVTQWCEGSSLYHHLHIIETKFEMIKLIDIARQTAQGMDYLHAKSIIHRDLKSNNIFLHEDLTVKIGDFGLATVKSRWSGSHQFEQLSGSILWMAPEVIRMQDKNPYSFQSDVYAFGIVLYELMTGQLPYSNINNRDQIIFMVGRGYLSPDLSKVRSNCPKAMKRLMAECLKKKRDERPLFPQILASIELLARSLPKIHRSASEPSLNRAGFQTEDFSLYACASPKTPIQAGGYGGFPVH

IC50 [1]: 0.26 µM | IC50 (HT-29): 6.16 µM | IC50 (A-375): 3.08 µM
Structure (SMILES): COc1cccc(-n2cc(NC(=O)Cn3ccc(-c4ccccn4)n3)cn2)c1
IC50 [2]: 15.7 µM

IC50 [1]: 0.48 µM | IC50 (HT-29): 11.1 µM | IC50 (A-375): 11.2 µM
Structure (SMILES): COc1ccc(-n2cc(NC(=O)Cn3ccc(-c4ccccn4)n3)cn2)cc1
IC50 [2]: 24.4 µM

IC50 [1]: 1.28 µM | IC50 (HT-29): 12.7 µM | IC50 (A-375): 19.8 µM
Structure (SMILES): COc1ccc(-n2cc(NC(=O)Cn3ccc4ccccc43)cn2)cc1
IC50 [2]: 24.8 µM

IC50 [1]: 0.73 µM | IC50 (HT-29): 11.5 µM | IC50 (A-375): 16.2 µM
Structure (SMILES): COc1ccc(CC(=O)Nc2cnn(-c3ccccc3)c2)cc1OC
IC50 [2]: 25.6 µM

IC50 [1]: 0.53 µM | IC50 (HT-29): 10.8 µM | IC50 (A-375): 10.6 µM
Structure (SMILES): O=C(Cn1ccc(-c2ccccn2)n1)Nc1cnn(-c2ccccc2)c1
IC50 [2]: 20.7 µM

IC50 [1]: 0.41 µM | IC50 (HT-29): 9.33 µM | IC50 (A-375): 4.57 µM
Structure (SMILES): COc1ccc(-n2cc(NC(=O)Cc3ccc(OC)c(OC)c3)cn2)cc1
IC50 [2]: 17.6 µM

IC50 [1]: 0.36 µM | IC50 (HT-29): 7.98 µM | IC50 (A-375): 3.49 µM
Structure (SMILES): COc1cccc(-n2cc(NC(=O)Cc3ccc(OC)c(OC)c3)cn2)c1
IC50 [2]: 24 µM

IC50 [1]: 0.55 µM | IC50 (HT-29): 12.7 µM | IC50 (A-375): 19.8 µM
Structure (SMILES): O=C(Cn1ccc(-c2ccccn2)n1)Nc1cnn(Cc2ccccc2)c1
IC50 [2]: 28 µM

IC50 [1]: 0.5 µM | IC50 (HT-29): 8.43 µM | IC50 (A-375): 10.4 µM
Structure (SMILES): COc1ccc(CC(=O)Nc2cnn(Cc3ccccc3)c2)cc1OC
IC50 [2]: 18.8 µM

IC50 [1]: 2.34 µM | IC50 (HT-29): 24.1 µM | IC50 (A-375): 24.5 µM
Structure (SMILES): Cc1ccc(-n2cc(NC(=O)Cn3ccc4ccccc43)cn2)cc1
IC50 [2]: 27.4 µM

IC50 [1]: 1.67 µM | IC50 (HT-29): 22.6 µM | IC50 (A-375): 16.8 µM
Structure (SMILES): Cn1cc(NC(=O)Cn2ccc(-c3cccc(Cl)c3)n2)cn1
IC50 [2]: 27.9 µM

Continued, molecule first:

Structure (SMILES): O=C(Cn1ccc2ccccc21)Nc1cnn(Cc2ccccc2)c1
IC50 [1]: 1.96 µM | IC50 (HT-29): 12.3 µM | IC50 (A-375): 17.6 µM | IC50 [2]: 26.8 µM

Structure (SMILES): CCn1cc(NC(=O)Cn2ccc3ccccc32)cn1
IC50 [1]: 1.82 µM | IC50 (HT-29): 49.9 µM | IC50 (A-375): 27.2 µM | IC50 [2]: 47.8 µM

Structure (SMILES): Cn1cc(NC(=O)Cn2ccc3ccccc32)cn1
IC50 [1]: 4.66 µM | IC50 (HT-29): 35.1 µM | IC50 (A-375): 28.9 µM | IC50 [2]: 36.5 µM

Structure (SMILES): Cn1cc(NC(=O)Cn2ccc(-c3ccccn3)n2)cn1
IC50 [1]: 2.54 µM | IC50 (HT-29): 25.4 µM | IC50 (A-375): 23.7 µM | IC50 [2]: 31.9 µM

Structure (SMILES): O=C(Cn1ccc2ccccc21)Nc1cnn(-c2ccccc2)c1
IC50 [1]: 1.23 µM | IC50 (HT-29): 26.6 µM | IC50 (A-375): 24.2 µM | IC50 [2]: 25.8 µM

Structure (SMILES): CCn1cc(NC(=O)Cn2ccc(-c3cccc(Cl)c3)n2)cn1
IC50 [1]: 1.19 µM | IC50 (HT-29): 12.9 µM | IC50 (A-375): 19.4 µM | IC50 [2]: 26.5 µM

Structure (SMILES): COc1ccc(CC(=O)Nc2cnn(-c3ccc(C)cc3)c2)cc1OC
IC50 [1]: 0.45 µM | IC50 (HT-29): 8.73 µM | IC50 (A-375): 2.74 µM | IC50 [2]: 16.6 µM

Structure (SMILES): CCn1cc(NC(=O)Cc2ccc(OC)c(OC)c2)cn1
IC50 [1]: 3.66 µM | IC50 (HT-29): 25.6 µM | IC50 (A-375): 17.9 µM | IC50 [2]: 31.4 µM

Structure (SMILES): O=C(Cn1ccc(-c2cccc(Cl)c2)n1)Nc1cnn(Cc2ccccc2)c1
IC50 [1]: 0.34 µM | IC50 (HT-29): 5.7 µM | IC50 (A-375): 3.26 µM | IC50 [2]: 14.9 µM

Structure (SMILES): CCn1cc(NC(=O)Cn2ccc(-c3ccccn3)n2)cn1
IC50 [1]: 3.86 µM | IC50 (HT-29): 26.8 µM | IC50 (A-375): 23.3 µM | IC50 [2]: 29.8 µM

Structure (SMILES): COc1cccc(-n2cc(NC(=O)Cn3ccc4ccccc43)cn2)c1
IC50 [1]: 0.46 µM | IC50 (HT-29): 10.1 µM | IC50 (A-375): 5.67 µM | IC50 [2]: 16.5 µM

Structure (SMILES): COc1ccc(CC(=O)Nc2cnn(C)c2)cc1OC
IC50 [1]: 4.43 µM | IC50 (HT-29): 32.8 µM | IC50 (A-375): 18.6 µM | IC50 [2]: 40.3 µM
